Data taken from ChEMBL document CHEMBL1145551, “Further pterocellins from the New Zealand marine bryozoan Pterocella vesiculosa” (J Nat Prod, 2008).
Values after ≈ are worked out from the molar mass of the structure shown. Active and inactive are the calls of the source. The calls are words filed in the database; no cut-off is given here.

How the values were obtained:
Amorphotheca resinae = test: Antifungal activity against Cladosporium resinae; format: functional, organism-based
P388 = test: Cytotoxicity against mouse P388 ATCC CCL 46 cells; format: functional, cell-based
Human alphaherpesvirus 1 = test: Antiviral activity against HSV1 F ATCC VR 733 in african green monkey BSC1 cells; format: functional, organism-based; settings: BSC-1
Poliovirus 1 = test: Antiviral activity against PV1 in african green monkey BSC1 cells; format: functional, organism-based; settings: BSC-1
[1] = Cytotoxicity against african green monkey BSC1 cells at 40 ug/disc; format: cell-based; settings: chlorocebus aethiops, bsc-1
Escherichia coli = test: Antibacterial activity against Escherichia coli; format: functional, organism-based
Bacillus subtilis = test: Antibacterial activity against Bacillus subtilis; format: functional
Pseudomonas aeruginosa = test: Antibacterial activity against Pseudomonas aeruginosa; format: functional, organism-based
Candida albicans = test: Antifungal activity against Candida albicans; format: functional, organism-based
[2] = system: Trichophyton mentagrophytes; test: Antifungal activity against Trichophyton mentagrophytes; format: functional, organism-based

SMILES | Activity (Amorphotheca resinae) | IC50 (P388) [µg/mL] | Activity (Human alphaherpesvirus 1) | Activity (Poliovirus 1) | Activity [1] | Activity (Escherichia coli) | MIC (Bacillus subtilis) [µg] | Activity (Pseudomonas aeruginosa) | Activity (Candida albicans) | Activity [2]
COc1cn2c(c(-c3c4n(cc(OC)c3=O)-c3c(ccnc3CC(C)C)C4=O)c1=O)C(=O)c1ccnc(CC(C)C)c1-2 [PTEROCELLIN E] | inactive | > 6.25 | inactive | inactive | Non-toxic | inactive | 1 | inactive | inactive | inactive
COc1cn2c(cc1=O)C(=O)c1ccnc(Cc3ccccc3)c1-2 [PTEROCELLIN B] | – | 0.323 (≈ 1.01 µM) | – | – | – | – | – | – | – | –
COc1cn2c(c(Cc3c4n(cc(OC)c3=O)-c3c(ccnc3CC(C)C)C4=O)c1=O)C(=O)c1ccnc(CC(C)C)c1-2 [PTEROCELLIN F] | inactive | > 6.25 | inactive | inactive | Non-toxic | inactive | 1 | inactive | inactive | inactive
COc1cn2c(cc1=O)C(=O)c1ccnc(CC(C)C)c1-2 [PTEROCELLIN A] | – | 0.477 (≈ 1.68 µM) | – | – | – | – | – | – | – | –
COc1cn2c(c(C(C)C)c1=O)C(=O)c1ccnc(CC(C)C)c1-2 [PTEROCELLIN D] | inactive | 4.77 (≈ 14.6 µM) | – | – | – | – | 0.5 | inactive | inactive | –
COc1cn2c(c(CCCCC(C)=O)c1=O)C(=O)c1ccnc(CC(C)C)c1-2 [PTEROCELLIN C] | inactive | > 6.25 | inactive | inactive | Non-toxic | inactive | 0.2 | inactive | inactive | inactive
